Consider 54 compounds from patent US8013006B2.

Molecules are shown by their SMILES. pIC50: −log10 of the molar value. Like-named read-outs stand apart in the source and are kept apart here. A value given as a limit tells only on which side of the number the result lay.

In this experiment the test system is HCV replicon. Description: microbe, parasite or virus in culture. The format is cell-based. Conditions: read-out: Replicon IC5Os.
Setting [1] is: Replicon IC50 values are determined by firefly luciferase signal, bicistronic replicon, 2 days.

`CCn1c(-c2cccc(NC(=O)OCCCCl)c2)c(C#N)c2cc(OC)ccc21` [Compound 509]: the pIC50 under setting [1] is less than 5.70.
Still for that read-out and setting: the figure for `CCCNC(=O)Nc1cccc(-c2c(C#N)c3cc(OC)ccc3n2CC)c1` [Compound 511] is less than 5.70.
The same measure, in the same setting: the figure for `CCOC(=O)NC(=O)Nc1cccc(-c2c(C#N)c3cc(OC)ccc3n2CC)c1` [Compound 512] is less than 5.70.
In the case of `CCn1c(-c2cccc(NC(=O)Nc3cccc(C(F)(F)F)c3)c2)c(C#N)c2cc(OC)ccc21` [Compound 513], the pIC50 under setting [1] was less than 5.70.
The same measure, in the same setting: the figure for `CCn1c(NC)c(C#N)c2ccc(C(F)(F)F)cc21` [Compound 514] is less than 5.70.
For `CCS(=O)(=O)Nc1ccc(-c2cc3ccc(OC(F)F)cc3n2C)cc1` [Compound 515], the pIC50 under setting [1] is 5.70 to 6.30.
As for `CCS(=O)(=O)Nc1ccc(-c2cc3ccc(OC(F)F)cc3n2C(C)C)cc1` [Compound 517], the pIC50 under setting [1] was less than 5.70.
`CCCn1c(-c2ccc(NS(=O)(=O)CC)cc2)c(C#N)c2ccc(OC(F)F)cc21` [Compound 522]: under setting [1], the pIC50 was more than 6.30.
On to `CCS(=O)(=O)Nc1ccc(-c2c(C#N)c3ccc(OC(F)F)cc3n2C(C)C)cc1` [Compound 524], for which the pIC50 under setting [1] was more than 6.30.
Turning to `CCOC(=O)Nc1cccc(-c2c(C#N)c3ccc(OCCCn4ccnc4)cc3n2CC)c1` [Compound 525], for the setting “Hepatitis C virus, 48 h”, the pIC50 was 5.70 to 6.30.
Same read-out and setting: the figure for `CCOC(=O)Nc1cccc(-c2c(C#N)c3ccc(OCCCN4CCN(C)CC4)cc3n2CC)c1` [Compound 526] is more than 6.30.
`CCOC(=O)Nc1cccc(-c2c(C#N)c3ccc(OCCCN4CCSCC4)cc3n2CC)c1` [Compound 527]: the pIC50 under setting [1] is 5.70 to 6.30.
On the same count and under the same terms, the figure for `CCOC(=O)Nc1cccc(-c2c(C#N)c3ccc(OCCCN4CCCCC4)cc3n2CC)c1` [Compound 528] is 5.70 to 6.30; for `CCOC(=O)Nc1cccc(-c2c(C#N)c3ccc(OCCCn4ccnn4)cc3n2CC)c1` [Compound 529] it is 5.70 to 6.30.
Regarding `CCOC(=O)Nc1cccc(-c2c(C#N)c3ccc(OCCCN(C)CCOC)cc3n2CC)c1` [Compound 531], where the note is “Hepatitis C virus, 48 h”, the pIC50 is 5.70 to 6.30.
On the same count and under the same terms, with `CCOC(=O)Nc1ccc(-c2c(C#N)c3ccc(OCCCn4ccnc4)cc3n2CC)cc1` [Compound 532] the figure was 5.70 to 6.30.
On the same count and under the same terms, with `CCOC(=O)Nc1ccc(-c2c(C#N)c3ccc(OCCCN4CCN(C)CC4)cc3n2CC)cc1` [Compound 533] the figure was 5.70 to 6.30.
For the compound `CCOC(=O)Nc1ccc(-c2c(C#N)c3ccc(OCCCN4CCSCC4)cc3n2CC)cc1` [Compound 534], the pIC50 (Hepatitis C virus, 48 h) is more than 6.30.
As to `CCOC(=O)Nc1ccc(-c2c(C#N)c3ccc(OCCCN4CCCCC4)cc3n2CC)cc1` [Compound 535], the pIC50 (Hepatitis C virus, 48 h) is more than 6.30.
On to `CCOC(=O)Nc1ccc(-c2c(C#N)c3ccc(OCCCn4ccnn4)cc3n2CC)cc1` [Compound 536], for which, where the note is “Hepatitis C virus, 48 h”, the pIC50 was 5.70 to 6.30.
On the same count and under the same terms, the figure for `CCOC(=O)Nc1ccc(-c2c(C#N)c3ccc(OCCCN4CCCC4)cc3n2CC)cc1` [Compound 537] is more than 6.30; for `CCOC(=O)Nc1ccc(-c2c(C#N)c3ccc(OCCCn4cncn4)cc3n2CC)cc1` [Compound 538] it is 5.70 to 6.30.
On the same count and under the same terms, the figure for `CCOC(=O)Nc1ccc(-c2c(C#N)c3ccc(OCCCN4CCOCC4)cc3n2CC)cc1` [Compound 539] is more than 6.30.
In the case of `CCn1c(-c2cccc(NS(=O)(=O)NC)c2)c(C#N)c2ccc(OC)cc21` [Compound 540], the pIC50 under setting [1] was 5.70 to 6.30.
On the same count and under the same terms, with `CCNS(=O)(=O)Nc1cccc(-c2c(C#N)c3ccc(OC)cc3n2CC)c1` [Compound 541] the figure was less than 5.70; with `CCCOC(=O)Nc1ccc(-c2c(C#N)c3ccc(OCCF)cc3n2CC)cc1` [Compound 547], more than 6.30; with `COc1ccc2c(C#N)c(-c3cccc(NC(=O)OCCCl)c3)n(C(C)C)c2c1` [Compound 553], less than 5.70.
The same measure, in the same setting: the figure for `C#CCOC(=O)Nc1cccc(-c2c(C#N)c3ccc(OC)cc3n2C(C)C)c1` [Compound 554] is less than 5.70; for `COCCOC(=O)Nc1cccc(-c2c(C#N)c3ccc(OC)cc3n2C(C)C)c1` [Compound 555] it is less than 5.70.
As to `COc1ccc2c(C#N)c(-c3cccc(NC(=O)OCc4ccccc4)c3)n(C(C)C)c2c1` [Compound 556], the pIC50 under setting [1] was less than 5.70.
Same read-out and setting: with `COc1ccc(OC(=O)Nc2cccc(-c3c(C#N)c4ccc(OC)cc4n3C(C)C)c2)cc1` [Compound 557] the figure was 5.70 to 6.30.
Take `CCn1c(-c2cccc(NC(=O)CCl)c2)c(C#N)c2ccc(C(F)(F)F)cc21` [Compound 558]: the pIC50 under setting [1] is 5.70 to 6.30.
On the same count and under the same terms, the figure for `CCC(=O)Nc1cccc(-c2c(C#N)c3ccc(C(F)(F)F)cc3n2CC)c1` [Compound 559] is less than 5.70; for `CCn1c(-c2cccc(NC(=O)c3ccccc3)c2)c(C#N)c2ccc(C(F)(F)F)cc21` [Compound 560] it is less than 5.70.
`CCn1c(-c2cccc(NC(=O)C3CC3)c2)c(C#N)c2ccc(C(F)(F)F)cc21` [Compound 561]: under setting [1], the pIC50 is less than 5.70.
`C=CS(=O)(=O)Nc1cccc(-c2c(C#N)c3ccc(C(F)(F)F)cc3n2CC)c1` [Compound 562]: the pIC50 (Hepatitis C virus, 48 h) is more than 6.30.
Take `CCn1c(-c2ccc(C(=O)NCCNC)cc2)c(C#N)c2ccc(OC)cc21` [Compound 564]: the pIC50 under setting [1] was 5.70 to 6.30.
The same measure, in the same setting: with `CCn1c(-c2ccc(NC(C)=O)cc2)c(C#N)c2ccccc21` [Compound 565] the figure was less than 5.70; with `CCn1c(-c2ccc(NC(=O)COC)cc2)c(C#N)c2ccccc21` [Compound 566], less than 5.70; with `CCn1c(-c2ccc(C(N)=O)cc2)c(C#N)c2cc(OC)ccc21` [Compound 568], less than 5.70.
Same read-out and setting: the figure for `CCNC(=O)c1ccc(-c2c(C#N)c3cc(OC)ccc3n2CC)cc1` [Compound 569] is 5.70 to 6.30; for `CCn1c(-c2ccc(C(=O)NC3CC3)cc2)c(C#N)c2cc(OC)ccc21` [Compound 571] it is 5.70 to 6.30; for `CCn1c(-c2ccc(C(=O)NCCOC)cc2)c(C#N)c2cc(OC)ccc21` [Compound 572] it is 5.70 to 6.30.
As for `CCn1c(-c2ccc(C(=O)N3CCCN(C)CC3)cc2)c(C#N)c2cc(OC)ccc21` [Compound 573], under setting [1], the pIC50 is less than 5.70.
The same measure, in the same setting: the figure for `CCN(CC)S(=O)(=O)Nc1cccc(-c2c(C#N)c3ccc(OC)cc3n2CC)c1` [Compound 574] is less than 5.70; for `CCS(=O)(=O)Nc1ccc(-c2cc3cc(OC)ccc3n2C)cc1` [Compound 575] it is 5.70 to 6.30; for `CCn1c(-c2cccc(NS(=O)(=O)N3CCCC3)c2)c(C#N)c2ccc(OC)cc21` [Compound 576] it is less than 5.70.
Regarding `CCS(=O)(=O)Nc1ccc(-c2cc3c(OC)cccc3n2C)cc1` [Compound 577], the pIC50 under setting [1] was 5.70 to 6.30.
As for `CCn1c(-c2ccc3occc3c2)c(C#N)c2ccc(OC)cc21` [Compound 578], under setting [1], the pIC50 is 5.70 to 6.30.
As for `CCn1c(-c2cccc(NC(=O)OC)c2)c(C#N)c2ccc(OC(C)C)cc21` [Compound 581], where the note is “Hepatitis C virus, 48 h”, the pIC50 is 5.70 to 6.30.
On the same count and under the same terms, the figure for `CCOC(=O)Nc1cccc(-c2c(C#N)c3ccc(OC(C)C)cc3n2CC)c1` [Compound 582] is 5.70 to 6.30.
Turning to `CCn1c(-c2cccc(NC(=O)OCCF)c2)c(C#N)c2ccc(OC(C)C)cc21` [Compound 583], the pIC50 under setting [1] was 5.70 to 6.30.
Regarding `CCn1c(-c2cccc(NC(=O)OCCCl)c2)c(C#N)c2ccc(OC(C)C)cc21` [Compound 584], the pIC50 under setting [1] is less than 5.70.
For `CCCOC(=O)Nc1cccc(-c2c(C#N)c3ccc(OC(C)C)cc3n2CC)c1` [Compound 585], the pIC50 (Hepatitis C virus, 48 h) was 5.70 to 6.30.
